Measurements from ChEMBL document CHEMBL5126591, “Early potential evaluation of lead compounds from a DNA-encoded library by the determination of their thermodynamics through a chromatographic method based on immobilized β2-adrenoceptor” (Bioorg Med Chem, 2022).
The source made the active and inactive calls. The calls are words filed in the database; no cut-off is given here.

Legend:
[1] = molecular target: T1, Beta-2 adrenergic receptor (Homo sapiens, UniProt P07550); assay: Binding affinity to immobilized Halo tag-fused beta2 adrenoceptor (unknown origin) expressed in Escherichia coli BL21 (DE3) assessed as reduction in retention time by chromatographic analysis
Target sequence in this assay (P07550 whole entry, looked up, the tested form may be a part): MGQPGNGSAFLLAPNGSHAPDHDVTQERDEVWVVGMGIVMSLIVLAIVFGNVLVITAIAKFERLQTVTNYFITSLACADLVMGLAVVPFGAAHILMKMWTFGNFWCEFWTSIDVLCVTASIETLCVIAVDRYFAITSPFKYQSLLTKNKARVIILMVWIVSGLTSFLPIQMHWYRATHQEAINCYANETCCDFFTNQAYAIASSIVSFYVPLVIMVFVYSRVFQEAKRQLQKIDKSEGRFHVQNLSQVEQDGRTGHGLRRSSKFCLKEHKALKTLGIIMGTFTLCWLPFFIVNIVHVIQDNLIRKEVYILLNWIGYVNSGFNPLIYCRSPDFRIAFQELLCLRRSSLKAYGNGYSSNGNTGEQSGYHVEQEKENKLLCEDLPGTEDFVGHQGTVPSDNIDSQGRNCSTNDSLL

[2] = molecular target: T1, Beta-2 adrenergic receptor
Target sequence in this assay (P07550 whole entry, looked up, the tested form may be a part): as above
Description: Binding affinity to immobilized Halo tag-fused beta2 adrenoceptor (unknown origin) expressed in Escherichia coli BL21 (DE3) assessed as retention time by chromatographic analysis

[3] = molecular target: T1, Beta-2 adrenergic receptor; assay: Displacement of [3H]-CGP12,177 from immobilized Halo tag-fused beta2 adrenoceptor (unknown origin) expressed in Escherichia coli BL21 (DE3)
Target sequence in this assay (P07550 whole entry, the tested form may be a part): as the sequence (P07550 whole entry, looked up, the tested form may be a part) above

**Q.** With `CC1(C)[C@@H](O)CC[C@]2(C)[C@H]3C(=O)C=C4[C@@H]5C[C@@](C)(C(=O)NCCc6ccc(O)cc6)CC[C@]5(C)CC[C@@]4(C)[C@]3(C)CC[C@@H]12` as the molecule, how does the Activity [1] read?
**A.** Its Activity is “Active”.

**Q.** With `O=NO` as the molecule, how does the Retention time [2] read?
**A.** The Retention time was 2.4 min.

**Q.** Which Ka [3] does the source give for `CNC(C)Cc1ccccc1OC` (centres undefined) [METHOXYPHENAMINE] here?
**A.** Its Ka is 2.08 10^5/M.

**Q.** And the Retention time [2]?
**A.** Its Retention time is 4.6 min.
